The values below are quoted from earlier work in paper PMC8528301 (PLoS ONE, 2021).

For orientation: bioavailability means dose-corrected exposure relative to a reference, in per cent. By Tmax is commonly meant the time at which the peak concentration occurs.

Series [1] has as its system CYP3A4. Also on record: method as in PMID 19282395. The settings on record: cited from earlier work.
For series [2] the following is noted: bile duct cannulated rats; no reference given; cited from earlier work.
For series [3] the following is noted: cited from earlier work; for Tmax: oral dosing.
For series [4] the following is noted: oral dosing; monkeys; cited from earlier work.
Series [5] concerns CYP3A4. The settings on record: in vitro metabolic studies; humans; cited from earlier work.

Structures are written as SMILES. Like-named read-outs stand apart in the source and are kept apart here.

For the compound `Cc1nc(Nc2ncc(C(=O)Nc3c(C)cccc3Cl)s2)cc(N2CCN(CCO)CC2)n1` [dasatinib], in the series on CYP3A4 [1], the “K(inact), CYP3A4 mechanism-based inactivation” value was 0.034 min (-1). The KI (inactivation) in the series with CYP3A4 [1] (read-out: K(I), CYP3A4 mechanism-based inactivation) was 6.3 µM. Besides, in series [2], the oral bioavailability is 27%. Further, the “percentage of unchanged drug in the gastrointestinal tract” value in series [2] is listed as 33%. Besides, the bioavailability in series [3] (mice) was 17%; in series [3] (one study, species not given) it was 45–51%. Moreover, the Tmax is 15 min in series [3] (Mdr1a wild-type and KO mice); 120 min in series [3] (nude female nude mice); 36 min in series [4]. Moreover, the “share of dasatinib metabolized by CYP3A4” value with CYP3A4 [5] is recorded as 98%.
